Target: T1, integrin α4β7 on α4β7+ memory T helper cells (Homo sapiens, UniProt P13612+P26010)
T1 construct: endogenous in cells
T1 sequence (P13612 34-1032): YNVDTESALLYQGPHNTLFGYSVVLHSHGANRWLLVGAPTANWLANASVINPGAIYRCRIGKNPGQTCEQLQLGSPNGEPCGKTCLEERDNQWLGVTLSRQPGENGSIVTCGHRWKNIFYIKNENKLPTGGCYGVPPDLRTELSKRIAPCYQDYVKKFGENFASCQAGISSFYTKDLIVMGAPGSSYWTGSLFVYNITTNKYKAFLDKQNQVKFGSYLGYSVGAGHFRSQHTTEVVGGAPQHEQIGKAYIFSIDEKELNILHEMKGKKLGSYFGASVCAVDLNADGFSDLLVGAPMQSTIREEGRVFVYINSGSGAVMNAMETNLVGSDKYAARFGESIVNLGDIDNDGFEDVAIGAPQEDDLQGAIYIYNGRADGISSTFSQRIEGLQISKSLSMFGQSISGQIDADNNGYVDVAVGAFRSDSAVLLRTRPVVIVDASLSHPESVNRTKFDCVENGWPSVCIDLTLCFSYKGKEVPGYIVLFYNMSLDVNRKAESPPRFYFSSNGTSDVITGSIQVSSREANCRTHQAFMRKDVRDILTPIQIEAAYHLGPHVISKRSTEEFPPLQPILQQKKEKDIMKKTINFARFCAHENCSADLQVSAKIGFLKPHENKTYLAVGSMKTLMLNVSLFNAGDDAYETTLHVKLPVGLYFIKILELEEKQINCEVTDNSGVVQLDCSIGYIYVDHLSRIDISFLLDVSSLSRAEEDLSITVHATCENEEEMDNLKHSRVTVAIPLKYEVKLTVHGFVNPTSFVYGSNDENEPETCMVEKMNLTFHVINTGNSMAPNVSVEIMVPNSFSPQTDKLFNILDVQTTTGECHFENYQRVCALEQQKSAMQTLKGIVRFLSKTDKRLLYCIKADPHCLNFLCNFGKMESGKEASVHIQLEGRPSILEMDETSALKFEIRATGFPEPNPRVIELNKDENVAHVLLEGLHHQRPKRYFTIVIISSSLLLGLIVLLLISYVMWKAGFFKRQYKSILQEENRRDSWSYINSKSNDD
T1 sequence (P26010 20-798): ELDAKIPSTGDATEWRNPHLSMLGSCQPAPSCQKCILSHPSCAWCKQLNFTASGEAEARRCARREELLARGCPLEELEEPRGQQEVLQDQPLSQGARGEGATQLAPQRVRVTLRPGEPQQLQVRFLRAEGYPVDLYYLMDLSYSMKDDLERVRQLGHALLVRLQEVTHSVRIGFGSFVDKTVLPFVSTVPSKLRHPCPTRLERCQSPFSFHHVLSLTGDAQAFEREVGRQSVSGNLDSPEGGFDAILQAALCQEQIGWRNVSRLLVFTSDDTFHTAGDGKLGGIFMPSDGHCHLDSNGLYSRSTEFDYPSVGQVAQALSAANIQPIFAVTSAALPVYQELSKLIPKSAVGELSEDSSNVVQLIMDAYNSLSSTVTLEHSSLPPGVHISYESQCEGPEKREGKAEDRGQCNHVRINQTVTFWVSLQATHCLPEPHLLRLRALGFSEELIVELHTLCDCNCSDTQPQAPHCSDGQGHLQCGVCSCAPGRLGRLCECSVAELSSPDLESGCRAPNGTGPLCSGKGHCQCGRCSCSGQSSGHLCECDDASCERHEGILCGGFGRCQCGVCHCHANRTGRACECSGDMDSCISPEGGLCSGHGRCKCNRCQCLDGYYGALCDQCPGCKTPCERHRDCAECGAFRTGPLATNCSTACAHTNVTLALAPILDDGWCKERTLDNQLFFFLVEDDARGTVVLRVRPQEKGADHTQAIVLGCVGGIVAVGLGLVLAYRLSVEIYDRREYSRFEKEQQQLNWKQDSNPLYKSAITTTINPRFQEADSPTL
Assay: MAdCAM-1 competition / receptor occupancy assay in human whole blood, α4β7-positive Th memory cells
Assay type: cell-based
Conditions: human whole blood, 1000 nM; read-out: receptor occupancy at maximum concentration
Protocol: Analyte Competition Assay in CD4+ Integrin α4+β7-Lo Memory T Cells
Receptor occupancy in primary cells was determined by measuring the amount of biotinylated human recombinant MAdCAM-1-FC or human recombinant VCAM-1-Fc bound to selected cell populations using flow cytometry. Human recombinant MAdCAM-1-FC or human recombinant VCAM-1-FC (R&D systems) were biotinylated using commercially available reagents and protocol (Pierce).
Whole blood was collected from human donors in sodium heparin tubes. […] Cells were washed twice with 1 mL of 1X DPBS calcium magnesium free (CMF) (ThermoFisher Scientific) and resuspended in 100 microL of DPBS CMF.
Biotinylated human recombinant MAdCAM-1-Fc or VCAM-1-Fc were added at saturating concentration and incubated at room temperature for 1 hour. […] Cells were washed with 1 mL stain buffer-FBS (BD Biosciences) and resuspended in 100 μl stain Buffer-FBS (BD Biosciences) containing 4 mM MnCl2. […] Cells were then washed with 1 mL stain buffer-FBS and resuspended in […] stain buffer-FBS. The cells were incubated in the dark for 30 minutes at room temperature with 1 ul Streptavidin APC (Biolegend 0.2 mg/ml) and a panel of antibodies for the detection of memory T helper a4b7-positive cells subset. And amount of 5.0 ul each of the following antibodies were used; CD45 FITC (BioLegend 200 ug/ml), CD29 APC Cy7 (BioLegend 100 ug/ml), Integrin beta7 PE, (BioLegend concentration 50 μg/mL), CD49d V421 (BioLegend 50 μg/mL), CD3 V510 (BioLegend 30 μg/mL), CD4 PECy7 (BioLegend 100 μg/mL), CD45RO PerCP, BioLegend 200 μg/mL). The cells were then washed with stain-buffer-FBS and resuspended in 150 microL stain buffer-FBS for acquisition on the flow cytometer (BD FACSCanto™ flow cytometer and BDFACSDiva™ software). FACS data was acquire by electronic gating on the basis of forward versus side scatter, The cytometer was set to collect 20,000 events in each tube. Cell population were determined using the following markers, CD45+, CD3+, CD4+, CD45RO+, CD49d+, integrin b7, biotinylated ligands.
Compound receptor occupancy was defined as the decrease in the number of integrin β7+ or integrin β7-lo cells binding biotinylated rhMAdCAM-1 or rhVCAM-1, respectively.
Receptor occupancy was calculated with the following equation: 100−((% ligand-positive cells with compound/% ligand-positive cells DMSO)*100) In Vivo T Lymphocyte Trafficking Analysis in Mouse Model of Colitis

SMILES	receptor occupancy at 1 µM
CC(C)C[C@@H]1NC(=O)C[C@H](CCCCN)N(C)C(=O)[C@H](CCCCN)NC(=O)[C@@H]2CCCN2[C@H](C(=O)NC(C)(C)C)[C@H](C)NC(=O)[C@H]([C@@H](C)O)NC(=O)[C@H](CC(=O)O)NC1=O [Compound 456]	15%

Same assay, conditions: human whole blood, FIG. 7; read-out: EC50, competition with saturating amount of MAdCAM

SMILES	EC50
CC(C)C[C@@H]1NC(=O)c2ccc(-c3ccc(N4CCN(C(=O)COCC(=O)N5CCN(c6ccc(-c7ccc8cc7CNC(=O)[C@@H]7CCCN7[C@H](C(=O)NC(C)(C)C)[C@H](C)NC(=O)[C@H]([C@@H](C)O)NC(=O)[C@H](CC(=O)O)NC(=O)[C@H](CC(C)C)NC8=O)cc6)CC5)CC4)cc3)c(c2)CNC(=O)[C@@H]2CCCN2[C@H](C(=O)NC(C)(C)C)[C@H](C)NC(=O)[C@H]([C@@H](C)O)NC(=O)[C@H](CC(=O)O)NC1=O [Compound 390]	90 nM

Same assay, conditions: human whole blood, inhibition of MAdCAM-1 binding to α4β7-positive Th memory cells, FACS; read-out: MADCAM FACS a4b7 Th mem

SMILES	IC50
CC(C)C[C@@H]1NC(=O)C[C@H](CCCCN)N(C)C(=O)[C@H](CCCCN)NC(=O)[C@@H]2CCCN2[C@H](C(=O)NC(C)(C)C)[C@H](C)NC(=O)[C@H]([C@@H](C)O)NC(=O)[C@H](CC(=O)O)NC1=O [Compound 456]	1000 nM

Same assay, conditions: human whole blood, inhibition of MAdCAM-1 binding to α4β7-positive Th memory cells, FACS; read-out: MADCAM FACS α4β7 Th mem

SMILES	IC50
CC(C)C[C@@H]1NC(=O)c2ccc(-c3ccc(N4CCN(C(=O)COCC(=O)N5CCN(c6ccc(-c7ccc8cc7CNC(=O)[C@@H]7CCCN7[C@H](C(=O)NC(C)(C)C)[C@H](C)NC(=O)[C@H]([C@@H](C)O)NC(=O)[C@H](CC(=O)O)NC(=O)[C@H](CC(C)C)NC8=O)cc6)CC5)CC4)cc3)c(c2)CNC(=O)[C@@H]2CCCN2[C@H](C(=O)NC(C)(C)C)[C@H](C)NC(=O)[C@H]([C@@H](C)O)NC(=O)[C@H](CC(=O)O)NC1=O [Compound 390]	90 nM
CC(C)C[C@@H]1NC(=O)c2ccc(-c3ccc(N4CCN(C(=O)[C@H]5CCC[C@H]5C(=O)N5CCN(c6ccc(-c7ccc8cc7CNC(=O)[C@@H]7CCCN7[C@H](C(=O)NC(C)(C)C)[C@H](C)NC(=O)[C@H]([C@@H](C)O)NC(=O)[C@H](CC(=O)O)NC(=O)[C@H](CC(C)C)NC8=O)cc6)CC5)CC4)cc3)c(c2)CNC(=O)[C@@H]2CCCN2[C@H](C(=O)NC(C)(C)C)[C@H](C)NC(=O)[C@H]([C@@H](C)O)NC(=O)[C@H](CC(=O)O)NC1=O [Compound 458]	66 nM
CC(C)C[C@@H]1NC(=O)c2ccc(-c3ccc(N4CCN(C(=O)C56CC7CC(C5)CC(C(=O)N5CCN(c8ccc(-c9ccc%10cc9CNC(=O)[C@@H]9CCCN9[C@H](C(=O)NC(C)(C)C)[C@H](C)NC(=O)[C@H]([C@@H](C)O)NC(=O)[C@H](CC(=O)O)NC(=O)[C@H](CC(C)C)NC%10=O)cc8)CC5)(C7)C6)CC4)cc3)c(c2)CNC(=O)[C@@H]2CCCN2[C@H](C(=O)NC(C)(C)C)[C@H](C)NC(=O)[C@H]([C@@H](C)O)NC(=O)[C@H](CC(=O)O)NC1=O [Compound 460]	107 nM
CC(C)C[C@@H]1NC(=O)c2ccc(-c3ccc(N4CCN(C(=O)C5(C(=O)N6CCN(c7ccc(-c8ccc9cc8CNC(=O)[C@@H]8CCCN8[C@H](C(=O)NC(C)(C)C)[C@H](C)NC(=O)[C@H]([C@@H](C)O)NC(=O)[C@H](CC(=O)O)NC(=O)[C@H](CC(C)C)NC9=O)cc7)CC6)Cc6ccccc6C5)CC4)cc3)c(c2)CNC(=O)[C@@H]2CCCN2[C@H](C(=O)NC(C)(C)C)[C@H](C)NC(=O)[C@H]([C@@H](C)O)NC(=O)[C@H](CC(=O)O)NC1=O [Compound 461]	93 nM
COc1cc(C(=O)N2CCN(c3ccc(-c4ccc5cc4CNC(=O)[C@@H]4CCCN4[C@H](C(=O)NC(C)(C)C)[C@H](C)NC(=O)[C@H]([C@@H](C)O)NC(=O)[C@H](CC(=O)O)NC(=O)[C@H](CC(C)C)NC5=O)cc3)CC2)cc(-c2ccc(C(=O)N3CCN(c4ccc(-c5ccc6cc5CNC(=O)[C@@H]5CCCN5[C@H](C(=O)NC(C)(C)C)[C@H](C)NC(=O)[C@H]([C@@H](C)O)NC(=O)[C@H](CC(=O)O)NC(=O)[C@H](CC(C)C)NC6=O)cc4)CC3)cc2F)c1 [Compound 464]	232 nM
CC(C)C[C@@H]1NC(=O)c2ccc(-c3ccc(N4CCN(C(=O)c5ccc(-c6cccc(C(=O)N7CCN(c8ccc(-c9ccc%10cc9CNC(=O)[C@@H]9CCCN9[C@H](C(=O)NC(C)(C)C)[C@H](C)NC(=O)[C@H]([C@@H](C)O)NC(=O)[C@H](CC(=O)O)NC(=O)[C@H](CC(C)C)NC%10=O)cc8)CC7)n6)nc5)CC4)cc3)c(c2)CNC(=O)[C@@H]2CCCN2[C@H](C(=O)NC(C)(C)C)[C@H](C)NC(=O)[C@H]([C@@H](C)O)NC(=O)[C@H](CC(=O)O)NC1=O [Compound 466]	164 nM
CC(C)C[C@@H]1NC(=O)c2ccc(-c3ccc(N4CCN(C(=O)c5ccc(C(=O)N6CCN(c7ccc(-c8ccc9cc8CNC(=O)[C@@H]8CCCN8[C@H](C(=O)NC(C)(C)C)[C@H](C)NC(=O)[C@H]([C@@H](C)O)NC(=O)[C@H](CC(=O)O)NC(=O)[C@H](CC(C)C)NC9=O)cc7)CC6)s5)CC4)cc3)c(c2)CNC(=O)[C@@H]2CCCN2[C@H](C(=O)NC(C)(C)C)[C@H](C)NC(=O)[C@H]([C@@H](C)O)NC(=O)[C@H](CC(=O)O)NC1=O [Compound 470]	81 nM
CC(C)C[C@@H]1NC(=O)c2ccc(-c3ccc(N4CCN(C(=O)c5ccc(-c6ccc(C(=O)N7CCN(c8ccc(-c9ccc%10cc9CNC(=O)[C@@H]9CCCN9[C@H](C(=O)NC(C)(C)C)[C@H](C)NC(=O)[C@H]([C@@H](C)O)NC(=O)[C@H](CC(=O)O)NC(=O)[C@H](CC(C)C)NC%10=O)cc8)CC7)cc6)cc5)CC4)cc3)c(c2)CNC(=O)[C@@H]2CCCN2[C@H](C(=O)NC(C)(C)C)[C@H](C)NC(=O)[C@H]([C@@H](C)O)NC(=O)[C@H](CC(=O)O)NC1=O [Compound 474]	74 nM
CC(C)C[C@@H]1NC(=O)c2ccc(-c3ccc(N4CCN(C(=O)c5cc(F)ccc5-c5ccc(F)cc5C(=O)N5CCN(c6ccc(-c7ccc8cc7CNC(=O)[C@@H]7CCCN7[C@H](C(=O)NC(C)(C)C)[C@H](C)NC(=O)[C@H]([C@@H](C)O)NC(=O)[C@H](CC(=O)O)NC(=O)[C@H](CC(C)C)NC8=O)cc6)CC5)CC4)cc3)c(c2)CNC(=O)[C@@H]2CCCN2[C@H](C(=O)NC(C)(C)C)[C@H](C)NC(=O)[C@H]([C@@H](C)O)NC(=O)[C@H](CC(=O)O)NC1=O [Compound 475]	74 nM
